Results taken from US6737383B1, “Herbicidal oxadiazolidines” (priority 1999, dated 2004).

Assays:
bedstraw = assay: Test B pre/postemergence bedstraw; assay type: in vivo, Galium aparine; settings: Rate 250 g/ha, Postemergence; scale of 0 to 10 where 0 is no effect and 10 is complete control
Procedure, shortened: (§1)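 Test chemicals in a non-phytotoxic solvent mixture with surfactant were sprayed preemergence onto planted seeds and postemergence onto plants 2 to 18 cm tall (1- to 4-leaf stage). After twelve to sixteen days in a greenhouse, injury was visually rated against untreated controls from 0 (no effect) to 10 (complete control).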

blackgrass = assay: Test B pre/postemergence blackgrass; assay type: in vivo, Alopecurus myosuroides
Procedure, shortened: as §1

surinam grass = assay: Test B pre/postemergence surinam grass; assay type: in vivo, Brachiaria decumbens
Procedure, shortened: as §1

cocklebur = assay: Test B pre/postemergence cocklebur; assay type: in vivo, Xanthium strumarium
Procedure, shortened: as §1

corn = assay: Test B pre/postemergence corn; assay type: in vivo, Zea mays
Procedure, shortened: as §1

crabgrass = assay: Test B pre/postemergence crabgrass; assay type: in vivo, Digitaria sanguinalis
Procedure, shortened: as §1

giant foxtail = assay: Test B pre/postemergence giant foxtail; assay type: in vivo, Setaria faberii
Procedure, shortened: as §1

morningglory = assay: Test B pre/postemergence morningglory; assay type: in vivo, Ipomoea hederacea
Procedure, shortened: as §1

pigweed = assay: Test B pre/postemergence pigweed; assay type: in vivo, Amaranthus retroflexus
Procedure, shortened: as §1

rape = assay: Test B pre/postemergence rape; assay type: in vivo, Brassica napus
Procedure, shortened: as §1

soybean = assay: Test B pre/postemergence soybean; assay type: in vivo, Glycine max
Procedure, shortened: as §1

sugar beet = assay: Test B pre/postemergence sugar beet; assay type: in vivo, Beta vulgaris
Procedure, shortened: as §1

velvetleaf = assay: Test B pre/postemergence velvetleaf; assay type: in vivo, Abutilon theophrasti
Procedure, shortened: as §1

wheat = assay: Test B pre/postemergence wheat; assay type: in vivo, Triticum aestivum
Procedure, shortened: as §1

wild oat = assay: Test B pre/postemergence wild oat; assay type: in vivo, Avena fatua
Procedure, shortened: as §1

purple nutsedge = assay: Test B pre/postemergence purple nutsedge; assay type: in vivo, Cyperus rotundus
Procedure, shortened: as §1

[1] = Postemergence, Rate 62 g/ha, scale of 0 to 10, 0 is no effect, 10 is complete control
[2] = Postemergence, Rate 125 g/ha, scale 0 to 10, 0 is no effect, 10 is complete control
[3] = Postemergence, Rate 500 g/ha, scale 0 to 10, 0 is no effect, 10 is complete control
[4] = Preemergence, Rate 62 g/ha, scale of 0 to 10 where 0 is no effect and 10 is complete control
[5] = Preemergence, Rate 125 g/ha, scale 0 to 10, 0 is no effect, 10 is complete control
[6] = Rate 250 g/ha, Postemergence, scale of 0 to 10 where 0 is no effect and 10 is complete control
[7] = Preemergence, Rate 500 g/ha, scale of 0 to 10 where 0 is no effect and 10 is complete control

CCC(=O)Cn1c(=O)on(C(=O)N(c2ccc(F)cc2F)C(C)C)c1=O [Compound 524]
Plant response rating, Bedstraw (bedstraw): 9
Blackgrass plant response rating (blackgrass; [1]): 0
Blackgrass plant response rating (blackgrass; [2]): 2
Plant response rating, Blackgrass (blackgrass; [3]): 8
Plant response rating, Blackgrass (blackgrass; [4]): 4
Blackgrass plant response rating (blackgrass; [5]): 4
Blackgrass plant response rating (0 to 10 scale) (blackgrass; Preemergence, Rate 250 g/ha): 4
Plant response rating, Blackgrass (blackgrass; [6]): 9
B. signalgrass plant response rating (surinam grass; [1]): 0
B. signalgrass plant response rating (surinam grass; [2]): 0
Plant response rating, B. signalgrass (surinam grass; [3]): 9
Plant response rating, B. signalgrass (surinam grass; [4]): 0
B. signalgrass plant response rating (surinam grass; [5]): 0
B. signalgrass plant response rating (0 to 10 scale, 0 is no effect, 10 is complete control) (surinam grass; Preemergence, Rate 250 g/ha): 2
Plant response rating, B. signalgrass (surinam grass; [6]): 2
Cocklebur plant response rating (cocklebur; [1]): 0
Cocklebur plant response rating (cocklebur; [2]): 0
Plant response rating, Cocklebur (cocklebur; [3]): 3
Plant response rating, Cocklebur (cocklebur; [4]): 0
Cocklebur plant response rating (cocklebur; [5]): 0
Cocklebur plant response rating (0 to 10 scale) (cocklebur; Preemergence, Rate 250 g/ha): 0
Cocklebur plant response rating (cocklebur; [7]): 2
Plant response rating, Cocklebur (cocklebur; [6]): 0
Corn plant response rating (corn; [1]): 0
Corn plant response rating (corn; [2]): 2
Plant response rating, Corn (corn; [3]): 5
Plant response rating, Corn (corn; [4]): 0
Corn plant response rating (corn; [5]): 0
Corn plant response rating (0 to 10 scale) (corn; Preemergence, Rate 250 g/ha): 7
Corn plant response rating (corn; [7]): 9
Plant response rating, Corn (corn; [6]): 3
Crabgrass plant response rating (crabgrass; [1]): 3
Crabgrass plant response rating (crabgrass; [2]): 8
Plant response rating, Crabgrass (crabgrass; [3]): 9
Plant response rating, Crabgrass (crabgrass; [4]): 9
Crabgrass plant response rating (crabgrass; [5]): 10
Crabgrass plant response rating (0 to 10 scale) (crabgrass; Preemergence, Rate 250 g/ha): 9
Crabgrass plant response rating (crabgrass; [7]): 10
Plant response rating, Crabgrass (crabgrass; [6]): 8
Giant foxtail plant response rating (giant foxtail; [1]): 4
Giant foxtail plant response rating (giant foxtail; [2]): 8
Plant response rating, Giant foxtail (giant foxtail; [3]): 9
Plant response rating, Giant foxtail (giant foxtail; [4]): 9
Giant foxtail plant response rating (giant foxtail; [5]): 9
Giant foxtail plant response rating (0 to 10 scale) (giant foxtail; Preemergence, Rate 250 g/ha): 9
Giant foxtail plant response rating (giant foxtail; [7]): 10
Plant response rating, Giant foxtail (giant foxtail; [6]): 8
Morningglory plant response rating (morningglory; [1]): 0
Morningglory plant response rating (morningglory; [2]): 2
Plant response rating, Morningglory (morningglory; [3]): 2
Plant response rating, Morningglory (morningglory; [4]): 0
Morningglory plant response rating (morningglory; [5]): 0
Morningglory plant response rating (0 to 10 scale) (morningglory; Preemergence, Rate 250 g/ha): 2
Morningglory plant response rating (morningglory; [7]): 2
Plant response rating, Morningglory (morningglory; [6]): 2
Redroot pigweed plant response rating (pigweed; [1]): 0
Redroot pigweed plant response rating (pigweed; [2]): 0
Plant response rating, Redroot pigweed (pigweed; [3]): 0
Plant response rating, Redroot pigweed (pigweed; [4]): 8
Redroot pigweed plant response rating (pigweed; [5]): 8
Redroot pigweed plant response rating (0 to 10 scale) (pigweed; Preemergence, Rate 250 g/ha): 8
Plant response rating, Redroot pigweed (pigweed; [6]): 0
Rape plant response rating (rape; [1]): 0
Rape plant response rating (rape; [2]): 0
Plant response rating, Rape (rape; [3]): 3
Plant response rating, Rape (rape; [4]): 2
Rape plant response rating (rape; [5]): 2
Rape plant response rating (0 to 10 scale) (rape; Preemergence, Rate 250 g/ha): 7
Plant response rating, Rape (rape; [6]): 0
Soybean plant response rating (soybean; [1]): 3
Plant response rating, Soybean (soybean; [3]): 4
Plant response rating, Soybean (soybean; [4]): 0
Soybean plant response rating (soybean; [5]): 0
Soybean plant response rating (0 to 10 scale) (soybean; Preemergence, Rate 250 g/ha): 0
Soybean plant response rating (soybean; [7]): 0
Plant response rating, Soybean (soybean; [6]): 3
Sugarbeets plant response rating (sugar beet; [1]): 0
Sugarbeets plant response rating (sugar beet; [2]): 0
Plant response rating, Sugarbeets (sugar beet; [3]): 0
Plant response rating, Sugarbeets (sugar beet; [4]): 0
Sugarbeets plant response rating (sugar beet; [5]): 3
Sugarbeets plant response rating (0 to 10 scale) (sugar beet; Preemergence, Rate 250 g/ha): 6
Plant response rating, Sugarbeets (sugar beet; [6]): 0
Velvetleaf plant response rating (velvetleaf; [1]): 0
Velvetleaf plant response rating (velvetleaf; [2]): 0
Plant response rating, Velvetleaf (velvetleaf; [3]): 6
Plant response rating, Velvetleaf (velvetleaf; [4]): 0
Velvetleaf plant response rating (velvetleaf; [5]): 3
Velvetleaf plant response rating (0 to 10 scale) (velvetleaf; Preemergence, Rate 250 g/ha): 4
Velvetleaf plant response rating (velvetleaf; [7]): 4
Plant response rating, Velvetleaf (velvetleaf; [6]): 5
Wheat plant response rating (wheat; [1]): 0
Wheat plant response rating (wheat; [2]): 0
Plant response rating, Wheat (wheat; [3]): 5
Plant response rating, Wheat (wheat; [4]): 0
Wheat plant response rating (wheat; [5]): 5
Wheat plant response rating (0 to 10 scale) (wheat; Preemergence, Rate 250 g/ha): 7
Plant response rating, Wheat (wheat; [6]): 0
Wild oats plant response rating (wild oat; [1]): 0
Wild oats plant response rating (wild oat; [2]): 0
Plant response rating, Wild oats (wild oat; [3]): 5
Plant response rating, Wild oats (wild oat; [4]): 7
Wild oats plant response rating (wild oat; [5]): 9
Wild oats plant response rating (0 to 10 scale) (wild oat; Preemergence, Rate 250 g/ha): 8
Plant response rating, Wild oats (wild oat; [6]): 0
Plant response rating, Nutsedge (purple nutsedge; [3]): 0
Plant response rating, Nutsedge (purple nutsedge; [4]): 0
Nutsedge plant response rating (purple nutsedge; [5]): 0
Nutsedge plant response rating (0 to 10 scale) (purple nutsedge; Preemergence, Rate 250 g/ha): 0
Nutsedge plant response rating (purple nutsedge; [7]): 4
